Measurements: ChEMBL document CHEMBL3885881, “DrugMatrix”

Species: Rattus norvegicus
Test: DrugMatrix - Regimen: Daily Repeat
Format: toxicity, organism-based, Sprague-Dawley
Design: regimen Daily Repeat, gender Male, age 6-8 weeks
Conditions: in vivo, po, route oral GAVAGE, vehicle 100 % WATER; for ABSOLUTE BASOPHIL / ABSOLUTE EOSINOPHIL / ABSOLUTE LYMPHOCYTE / ABSOLUTE MONOCYTE / ABSOLUTE SEGMENTED NEUTROPHIL / BASOPHIL / EOSINOPHIL / ERYTHROCYTE COUNT / HEMATOCRIT / HEMOGLOBIN / LEUKOCYTE COUNT / LYMPHOCYTE / MEAN CORPUSCULAR HEMOGLOBIN / MEAN CORPUSCULAR HEMOGLOBIN CONCENTRATION / MEAN CORPUSCULAR VOLUME / MONOCYTE / NEUTROPHIL / NUCLEATED RED BLOOD CELLS / PLATELET COUNT: tissue Blood; for ALANINE AMINOTRANSFERASE / ALBUMIN / ALKALINE PHOSPHATASE / ASPARTATE AMINOTRANSFERASE / BLOOD UREA NITROGEN / CARBON DIOXIDE / CHLORIDE / CHOLESTEROL / CREATINE PHOSPHOKINASE / CREATININE / GLUCOSE / LACTATE DEHYDROGENASE / LIPASE / PHOSPHORUS / POTASSIUM / SODIUM / TOTAL BILIRUBIN / TOTAL PROTEIN / URIC ACID: tissue Plasma
[1] = 0 mg/kg, 72 h, dose level Control, time 3 day
[2] = 0 mg/kg, 120 h, dose level Control, time 5 day
[3] = 10 mg/kg, 72 h, dose level Low, time 3 day

## NNc1nncc2ccccc12 [HYDRALAZINE]
[1]
  ABSOLUTE BASOPHIL: 0 CELLS/uL
  ABSOLUTE EOSINOPHIL: 20.17 CELLS/uL
  ABSOLUTE LYMPHOCYTE: 12371.67 CELLS/uL
  ABSOLUTE MONOCYTE: 166 CELLS/uL
  ABSOLUTE SEGMENTED NEUTROPHIL: 1292.17 CELLS/uL
  BASOPHIL: 0%
  EOSINOPHIL: 0.17%
  ERYTHROCYTE COUNT: 5.46 x10E6/uL
  HEMATOCRIT: 34.38%
  HEMOGLOBIN: 13.32 G/DL
  LEUKOCYTE COUNT: 13.85 x10E3/uL
  LYMPHOCYTE: 88.5%
  MEAN CORPUSCULAR HEMOGLOBIN: 24.42 pg
  MEAN CORPUSCULAR HEMOGLOBIN CONCENTRATION: 38.7 G/DL
  MEAN CORPUSCULAR VOLUME: 63.07 fL
  MONOCYTE: 1.17%
  NEUTROPHIL: 10.17%
  NUCLEATED RED BLOOD CELLS: 0.17 /100WBC
  PLATELET COUNT: 1193.5 x10E3/uL
  ALANINE AMINOTRANSFERASE: 54.5 u/L
  ALBUMIN: 4.02 G/DL
  ALKALINE PHOSPHATASE: 346.5 u/L
  ASPARTATE AMINOTRANSFERASE: 103.17 u/L
  BLOOD UREA NITROGEN: 16.5 mg/dL
  CARBON DIOXIDE: 29.83 mmol/L
  CHLORIDE: 99.5 MEQ/L
  CHOLESTEROL: 72.5 mg/dL
  CREATINE PHOSPHOKINASE: 532.5 u/L
  CREATININE: 0.18 mg/dL
  GLUCOSE: 168.5 mg/dL
  LACTATE DEHYDROGENASE: 536.5 u/L
  LIPASE: 11.17 u/L
  PHOSPHORUS: 11.48 mg/dL
  POTASSIUM: 5.95 MEQ/L
  SODIUM: 140.5 MEQ/L
  TOTAL BILIRUBIN: 0.18 mg/dL
  TOTAL PROTEIN: 5.77 G/DL
  URIC ACID: 1.42 mg/dL
[2]
  ABSOLUTE BASOPHIL: 0 CELLS/uL
  ABSOLUTE EOSINOPHIL: 22.83 CELLS/uL
  ABSOLUTE LYMPHOCYTE: 12202.83 CELLS/uL
  ABSOLUTE MONOCYTE: 158 CELLS/uL
  ABSOLUTE SEGMENTED NEUTROPHIL: 1283 CELLS/uL
  BASOPHIL: 0%
  EOSINOPHIL: 0.17%
  ERYTHROCYTE COUNT: 5.88 x10E6/uL
  HEMATOCRIT: 36.62%
  HEMOGLOBIN: 14.07 G/DL
  LEUKOCYTE COUNT: 13.67 x10E3/uL
  LYMPHOCYTE: 89.5%
  MEAN CORPUSCULAR HEMOGLOBIN: 23.95 pg
  MEAN CORPUSCULAR HEMOGLOBIN CONCENTRATION: 38.43 G/DL
  MEAN CORPUSCULAR VOLUME: 62.28 fL
  MONOCYTE: 1.17%
  NEUTROPHIL: 9.17%
  NUCLEATED RED BLOOD CELLS: 0.17 /100WBC
  PLATELET COUNT: 1198 x10E3/uL
  ALANINE AMINOTRANSFERASE: 51 u/L
  ALBUMIN: 4.3 G/DL
  ALKALINE PHOSPHATASE: 343 u/L
  ASPARTATE AMINOTRANSFERASE: 89.83 u/L
  BLOOD UREA NITROGEN: 17.67 mg/dL
  CARBON DIOXIDE: 27.17 mmol/L
  CHLORIDE: 98.33 MEQ/L
  CHOLESTEROL: 82.5 mg/dL
  CREATINE PHOSPHOKINASE: 533.33 u/L
  CREATININE: 0.18 mg/dL
  GLUCOSE: 152.67 mg/dL
  LACTATE DEHYDROGENASE: 220.33 u/L
  LIPASE: 11.5 u/L
  PHOSPHORUS: 11.25 mg/dL
  POTASSIUM: 6.29 MEQ/L
  SODIUM: 140.53 MEQ/L
  TOTAL BILIRUBIN: 0.22 mg/dL
  TOTAL PROTEIN: 6.12 G/DL
  URIC ACID: 1.42 mg/dL
[3]
  ABSOLUTE BASOPHIL: 0 CELLS/uL
  ABSOLUTE EOSINOPHIL: 33.33 CELLS/uL
  ABSOLUTE LYMPHOCYTE: 12179.67 CELLS/uL
  ABSOLUTE MONOCYTE: 152 CELLS/uL
  ABSOLUTE SEGMENTED NEUTROPHIL: 1268.33 CELLS/uL
  BASOPHIL: 0%
  EOSINOPHIL: 0.33%
  ERYTHROCYTE COUNT: 5.03 x10E6/uL
  HEMATOCRIT: 31.97%
  HEMOGLOBIN: 12.87 G/DL
  LEUKOCYTE COUNT: 13.63 x10E3/uL
  LYMPHOCYTE: 89.67%
  MEAN CORPUSCULAR HEMOGLOBIN: 25.6 pg
  MEAN CORPUSCULAR HEMOGLOBIN CONCENTRATION: 40.27 G/DL
  MEAN CORPUSCULAR VOLUME: 63.57 fL
  MONOCYTE: 1%
  NEUTROPHIL: 9%
  NUCLEATED RED BLOOD CELLS: 0 /100WBC
  PLATELET COUNT: 1225.67 x10E3/uL
  ALANINE AMINOTRANSFERASE: 46.67 u/L
  ALBUMIN: 3.87 G/DL
  ALKALINE PHOSPHATASE: 333.67 u/L
  ASPARTATE AMINOTRANSFERASE: 83.33 u/L
  BLOOD UREA NITROGEN: 16 mg/dL
  CARBON DIOXIDE: 30.33 mmol/L
  CHLORIDE: 100.33 MEQ/L
  CHOLESTEROL: 61.33 mg/dL
  CREATINE PHOSPHOKINASE: 318 u/L
  CREATININE: 0.15 mg/dL
  GLUCOSE: 154 mg/dL
  LACTATE DEHYDROGENASE: 304.33 u/L
  LIPASE: 10.33 u/L
  PHOSPHORUS: 11.37 mg/dL
  POTASSIUM: 6.36 MEQ/L
  SODIUM: 141.6 MEQ/L
  TOTAL BILIRUBIN: 0.2 mg/dL
  TOTAL PROTEIN: 5.7 G/DL
  URIC ACID: 1.67 mg/dL
